Experimental data taken from US20240261365A1, “POLYPEPTIDE ALBUMIN NANOPARTICLE, PREPARATION METHOD THEREFOR, AND APPLICATION THEREOF” (SUZHOU INSTITUTE OF NANO-TECH AND NANO-BIONICS (SINANO) , …, priority 2020, published 2024).
Read-outs that look alike come from different tables or passages of the source. Where a SMILES comes first, the peptide text is derived from it.

B1: iridium-coordinated oligopolypeptide (Ir-mK8) (peptide)
peptide: Ac-KKKKHHKKKK-NH2
modifications: also: coordinated with iridium complex from [Ir(ppy)2(H2O)2]OTf (1:1)
notes: also called Formula VII
B2: iridium-coordinated oligopolypeptide (Ir-cK8) (peptide)
peptide: Ac-HKKKKKKKKH-NH2
modifications: also: coordinated with iridium complex from [Ir(ppy)2(H2O)2]OTf (1:1)
notes: also called Formula VIII
B3: CH3CO-FWLFLRRRRRRRR (SEQ ID NO: 1)-CONH2 (FR) (peptide)
peptide: Ac-FWLFLRRRRRRRR-NH2
B4: chol-RRRRRRRR (SEQ ID NO: 2)-CONH2 (CR) (peptide)
peptide: cholesterol-RRRRRRRR-NH2

What was measured:
[1] = concentration in blood after tail vein injection, ICP-MASS of iridium; conditions: mouse, in vivo, BALB/c mice, 100 μL of 500 μM, read-out: elimination half-life in the blood
Method: 36 BALB/c mice were equally divided into two groups and injected with 100 μL of Ir-cR8 and Ir-cR8-HSA nanoparticles (500 μM) through tail veins, separately. After 0.5 h, 2 h, 4 h, 8 h, 24 h and 48 h, eyes were removed for blood sampling and centrifuged at 10000 rpm for 10 min. […] of centrifuged serum was added with 1 mL of high chlorine acid and 3 mL of aqua regia, digested at 260° C. for 2 h, and added with water to 10 mL. The content of metal iridium in the blood at each time point was detected by ICP-MASS.

[2] = system: Human cervical cancer cells, Hela cells; assay type: cell-based
Method: Human cervical cancer cells, Hela cells, were dispersed with a DMEM medium containing 10% fetal bovine serum and spread to a 96-well plate, 8000 cells per well. After the cells were attached to the walls, Ir-cR5, Ir-cR8 and Ir-aR8 of 2, 4, 8, 16, 32, 64 and 128 μM and the corresponding oligoarginine polypeptides cR5, cR8 and aR8 were added and incubated for 24 h. The cell activity was detected by a thiazole blue method and the half-maximal inhibitory concentration (IC50) was calculated.

[3] = target: T1, human serum albumin (HSA) (human, UniProt P02768 25-609); assay: dynamic light scattering of peptide-albumin assembly
T1 construct: Dissolved in water and used in solution
Method: The detection was performed at 25° C. using the dynamic light scattering apparatus, and only the peaks of the formed polypeptide albumin nanoparticles were calculated.

T1 sequence (P02768 25-609 limits assumed): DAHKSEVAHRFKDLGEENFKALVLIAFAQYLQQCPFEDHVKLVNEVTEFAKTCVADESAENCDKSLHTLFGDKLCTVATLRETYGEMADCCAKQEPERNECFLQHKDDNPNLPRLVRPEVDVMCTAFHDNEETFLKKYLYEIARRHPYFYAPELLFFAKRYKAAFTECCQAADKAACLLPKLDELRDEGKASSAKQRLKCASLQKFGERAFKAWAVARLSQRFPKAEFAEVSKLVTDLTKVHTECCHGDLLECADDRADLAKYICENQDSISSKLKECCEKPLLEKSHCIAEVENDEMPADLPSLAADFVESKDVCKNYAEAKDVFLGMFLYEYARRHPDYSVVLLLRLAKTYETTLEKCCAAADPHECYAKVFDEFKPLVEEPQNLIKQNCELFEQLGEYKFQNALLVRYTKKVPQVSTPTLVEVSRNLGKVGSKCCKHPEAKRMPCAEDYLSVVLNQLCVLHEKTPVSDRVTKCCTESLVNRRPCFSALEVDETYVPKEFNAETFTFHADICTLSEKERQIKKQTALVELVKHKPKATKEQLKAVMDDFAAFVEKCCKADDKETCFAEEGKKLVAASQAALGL

Molecule | binding result [3] | further results
CC(=O)N[C@@H](Cc1c[nH]cn1)C(=O)N[C@@H](CCCNC(=N)N)C(=O)N[C@@H](CCCNC(=N)N)C(=O)N[C@@H](CCCNC(=N)N)C(=O)N[C@@H](CCCNC(=N)N)C(=O)N[C@@H](CCCNC(=N)N)C(=O)N[C@@H](CCCNC(=N)N)C(=O)N[C@@H](CCCNC(=N)N)C(=O)N[C@@H](CCCNC(=N)N)C(=O)N[C@@H](Cc1c[nH]cn1)C(N)=O [Ir-cR8] (Ac-HRRRRRRRRH-NH2) |  | half-life [1]: < 30 min
CC(=O)N[C@@H](Cc1c[nH]cn1)C(=O)N[C@@H](Cc1c[nH]cn1)C(=O)N[C@@H](CCCNC(=N)N)C(=O)N[C@@H](CCCNC(=N)N)C(=O)N[C@@H](CCCNC(=N)N)C(=O)N[C@@H](CCCNC(=N)N)C(=O)N[C@@H](CCCNC(=N)N)C(=O)N[C@@H](CCCNC(=N)N)C(=O)N[C@@H](CCCNC(=N)N)C(=O)N[C@@H](CCCNC(=N)N)C(N)=O [aR8] (Ac-HHRRRRRRRR-NH2; N-terminus and C-terminus assumed) |  | IC50 ([2]; 24 h): > 100 µM
CC(=O)NC(Cc1c[nH]cn1)C(=O)NC(CCCNC(=N)N)C(=O)NC(CCCNC(=N)N)C(=O)NC(CCCNC(=N)N)C(=O)NC(CCCNC(=N)N)C(=O)NC(CCCNC(=N)N)C(=O)NC(Cc1c[nH]cn1)C(N)=O (centres unmarked) [cR5] (Ac-HRRRRRH-NH2; configuration not given here) |  | IC50 ([2]; 24 h): > 100 µM
CC(=O)NC(Cc1c[nH]cn1)C(=O)NC(CCCNC(=N)N)C(=O)NC(CCCNC(=N)N)C(=O)NC(CCCNC(=N)N)C(=O)NC(CCCNC(=N)N)C(=O)NC(CCCNC(=N)N)C(=O)NC(CCCNC(=N)N)C(=O)NC(CCCNC(=N)N)C(=O)NC(CCCNC(=N)N)C(=O)NC(Cc1c[nH]cn1)C(N)=O (centres unmarked) [cR8] (Ac-HRRRRRRRRH-NH2; configuration not given here) |  | IC50 ([2]; Hela cells, incubated for 24 h, read-out: IC50): > 100 µM
B1 | binds | 
B2 | binds | 
B3 | binds | 
B4 | binds | 
